Data as given in publication PMC4113456, “Atypical Signaling and Functional Desensitization Response of MAS Receptor to Peptide Ligands” (PLoS ONE, 2014).
Residue numbers refer to the chain shown, from its start. Where two headings read alike, the source gives them in different places. Non-standard residues stand in square brackets, D forms with d. Residues, ends and D or L forms follow the SMILES beside them. No end group written: not given here.

How the values were obtained:
MAS [1] = tested on: MAS; parameters: method as in ref [8] (a number printed in a supplementary file, which may have a reference list of its own: not looked up in the article's list); settings: Bovine MAS; ref [8]; cited from earlier work
MAS [2] = molecular target: T1, MAS (Homo sapiens, UniProt P04201); experiment: FLIPR calcium assay, induced myc-tagged WT MAS HEK293 stable cell line; assay type: cell-based; settings: for EC50, Calcium assay / EC50: induced cells
T1 construct: expressed in transfected cells
T1 sequence (P04201 1-325): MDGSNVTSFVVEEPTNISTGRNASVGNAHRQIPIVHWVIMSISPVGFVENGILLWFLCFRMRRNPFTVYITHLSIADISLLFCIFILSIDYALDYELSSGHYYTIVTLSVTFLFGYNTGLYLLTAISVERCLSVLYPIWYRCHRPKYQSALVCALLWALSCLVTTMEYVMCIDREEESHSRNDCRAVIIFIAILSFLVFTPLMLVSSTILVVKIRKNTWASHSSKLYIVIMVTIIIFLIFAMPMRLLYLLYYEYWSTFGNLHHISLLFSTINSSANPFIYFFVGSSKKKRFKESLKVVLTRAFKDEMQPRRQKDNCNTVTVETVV
Procedure: The assay was performed using FLIPR Calcium 5 assay kit (Molecular Devices, Sunnyvale, CA). For calcium measurements, cells at a density of 125,000 cells/well in 100 µl medium were seeded onto a 96-well clear bottom black cell culture plate that was pre-coated with poly-L-lysine. In the calcium assays the cell density of 125,000 cells/well was consistently maintained to minimize variability between independent experiments. The cells were seeded in induction media to induce MAS expression or in complete media for negative controls. The plate was maintained in a cell culture incubator for 26–28 h. The cells were then serum starved for 2 h by replacing the medium with 100 µl of serum free DMEM. In the case of pre-treatment with pan-inhibitor of G protein signaling, BIM-46187, the cells were initially serum starved for 1 h by replacing the medium with 50 µl of serum free DMEM. After 1 h, 50 µl of BIM-46187 was added to the cells to a final concentration of 25 µM and treated for another 1 h. Following serum starvation, 100 µl of calcium sensitive dye along with 2x (2.5 mM final concentration) probenecid (Life Technologies, Grand Island, NY) was added to the cells. During this step, AR-inverse agonist or BIM-46187 was also added at desired concentrations to the calcium dye preparation in case of experiments where cells were pre-treated with these inhibitors. The cells were maintained for one hour in the cell culture incubator. Following this, the 96-well plate containing cells loaded with calcium dye and a U-bottom 96-well plate containing ligands at 5x the desired final concentration in D-PBS (1.47 mM KH2PO4, 138 mM NaCl, 2.67 mM KCl, 8.1 mM Na2HPO4, pH 7.3) were allowed to equilibrate for 15 min on a FlexStation 3 instrument (Molecular Devices, Sunnyvale, CA) at 37°C. The plates were further equilibrated on the instrument for 5 min with the lids removed from the plates. The instrument was programmed in FLEX mode to add ligands (50 µl at 5x concentration) to the cells and to monitor the fluorescence before and after adding the ligands. In re-stimulation and antagonism assays the instrument is programmed to add 35 µl of first ligand followed by addition of the second ligand (35 µl) after 10 min. […] Therefore, when using 5x ligand stock the maximum AR-agonist concentration that could be tested was 10 µM.
In the calcium assays, the maximum response and minimum response values in relative fluorescence units (RFU) were extracted by subtracting the corresponding baseline value wherein baseline is defined as the average fluorescence of all time points before addition of ligand.
(§1) The kinetic parameter t1/2 (time taken to reach half of the maximum response) was determined using SoftMax Pro software supplied with the FlexStation 3 instrument (Molecular Devices, Sunnyvale, CA).
For re-stimulation assays, the data is expressed as the percentage of maximum agonist stimulation to allow for ready comparison between individual experiments. […] For all the assays, the EC50 and IC50 values were estimated by fitting the data to a three parameter dose response using GraphPad Prism software (GraphPad, La Jolla, CA).

MAS [3] = molecular target: T1, MAS; experiment: HTRF IP1 assay, induced myc-tagged WT MAS HEK293 stable cell line; assay type: cell-based; settings: WT MAS, induced cells
Procedure: IP1 levels in the cells were measured using the IP-One Tb kit (Cisbio US, Bedford, MA). For the assay, cells were seeded onto a 384-well low volume white cell culture plate at a density of 25,000 cells/well in 20 µl of induction or complete medium. In the IP1 assays the cell density of 25,000 cells/well was consistently maintained to minimize variability between independent experiments. The cells were maintained in a cell culture incubator for 26–28 h. The cells were then serum starved for 2 h by replacing the medium with 7 µl of serum free DMEM/F-12. During this step, 7 µl of serum free DMEM/F-12 was also added to the wells to which IP1 standards would be subsequently added. […] The cells were then placed in the cell culture incubator for 4 h. Later, 3 µl each of d2-labeled IP1 and anti-IP1 cryptate Tb conjugated antibody diluted in lysis buffer was added sequentially to all the wells and the plate was incubated overnight in the dark at room temperature. Time-resolved ratiometric fluorescence emission measurements at 665 nm and 620 nm were taken after excitation at 343 nm on FlexStation 3 instrument.
For the IP1 assay, a standard curve was generated using the 4-Parameter logistic equation fit of the HTRF readings of IP1 standards using the SoftMax Pro software. The IP1 concentrations in the experiments were extrapolated based on the standard curve parameters. […] For all the assays, the EC50 and IC50 values were estimated by fitting the data to a three parameter dose response using GraphPad Prism software (GraphPad, La Jolla, CA).

MAS [4] = molecular target: T1, MAS; experiment: SRF-RE luciferase reporter assay (Gα12-dependent), induced WT MAS stable cell line; assay type: cell-based; settings: induced cells
Procedure: The luciferase assay was performed using pGL4 luciferase reporter vectors and Dual-Glo Luciferase Assay System (Promega, Madison, WI). For this assay, the inducible MAS stable cells were initially plated in a 10 cm plate and left overnight in a cell culture incubator. The following day the cells were transfected with 5 µg of pGL4.34 plasmid containing serum response factor response element (SRF-RE)-firefly luciferase reporter gene and 1 µg of pGL4.73 plasmid containing renilla luciferase (as a transfection efficiency control). […] After 8 h of transfection and induction, the cells were seeded onto a 96-well clear bottom black cell culture plate (pre-coated with poly-L-lysine) at a density of 125,000 cells/well in 100 µl of minimal medium (with reduced serum of 0.5%). The plate was maintained in a cell culture incubator for 18–20 h. At this point 50 µl of media in the cells was replaced with 50 µl of serum free media containing ligands at 2x the desired concentration and incubated for an additional 6 h. Finally, the luciferase activity in the cells was measured according the protocol provided by the manufacturer. The luminescence measurements (RLU) in the cells were obtained on FlexStation 3 instrument.
For re-stimulation assays, the data is expressed as the percentage of maximum agonist stimulation to allow for ready comparison between individual experiments. […] In the luciferase assay, the luminescence measurements (RLU) are presented as a ratio of firefly to renilla luciferase activity. For all the assays, the EC50 and IC50 values were estimated by fitting the data to a three parameter dose response using GraphPad Prism software (GraphPad, La Jolla, CA).

untagged WT MAS = molecular target: T2, untagged WT MAS (Homo sapiens, UniProt P04201); experiment: Calcium assay, untagged WT MAS inducible HEK293 stable cell line; assay type: cell-based; settings: up to 250 µM
T2 construct: expressed in transfected cells
T2 sequence (P04201 1-325): T1 sequence (P04201 1-325)
Procedure: The assay was performed using FLIPR Calcium 5 assay kit (Molecular Devices, Sunnyvale, CA). For calcium measurements, cells at a density of 125,000 cells/well in 100 µl medium were seeded onto a 96-well clear bottom black cell culture plate that was pre-coated with poly-L-lysine. In the calcium assays the cell density of 125,000 cells/well was consistently maintained to minimize variability between independent experiments. The cells were seeded in induction media to induce MAS expression or in complete media for negative controls. The plate was maintained in a cell culture incubator for 26–28 h. The cells were then serum starved for 2 h by replacing the medium with 100 µl of serum free DMEM. In the case of pre-treatment with pan-inhibitor of G protein signaling, BIM-46187, the cells were initially serum starved for 1 h by replacing the medium with 50 µl of serum free DMEM. After 1 h, 50 µl of BIM-46187 was added to the cells to a final concentration of 25 µM and treated for another 1 h. Following serum starvation, 100 µl of calcium sensitive dye along with 2x (2.5 mM final concentration) probenecid (Life Technologies, Grand Island, NY) was added to the cells. During this step, AR-inverse agonist or BIM-46187 was also added at desired concentrations to the calcium dye preparation in case of experiments where cells were pre-treated with these inhibitors. The cells were maintained for one hour in the cell culture incubator. Following this, the 96-well plate containing cells loaded with calcium dye and a U-bottom 96-well plate containing ligands at 5x the desired final concentration in D-PBS (1.47 mM KH2PO4, 138 mM NaCl, 2.67 mM KCl, 8.1 mM Na2HPO4, pH 7.3) were allowed to equilibrate for 15 min on a FlexStation 3 instrument (Molecular Devices, Sunnyvale, CA) at 37°C. The plates were further equilibrated on the instrument for 5 min with the lids removed from the plates. The instrument was programmed in FLEX mode to add ligands (50 µl at 5x concentration) to the cells and to monitor the fluorescence before and after adding the ligands. […]

MAS [5] = tested on: MAS; parameters: method as in ref [2] (a number printed in a supplementary file, which may have a reference list of its own: not looked up in the article's list); settings: Mouse MAS; ref [2]; cited from earlier work
MAS [6] = tested on: MAS; parameters: method as in ref [2] (a number printed in a supplementary file, which may have a reference list of its own: not looked up in the article's list); settings: Mouse MAS; ref [2]; cited from earlier work; remark: listed apart in the source
MAS F112A mutant = molecular target: T3, MAS F112A mutant (Homo sapiens, UniProt P04201, F112A); experiment: Calcium assay, F112A MAS mutant stable cell line; assay type: cell-based
T3 construct: expressed in transfected cells
T3 sequence (P04201 1-325 F112A): T1 sequence (P04201 1-325) with F112A
Procedure: (§2) The assay was performed using FLIPR Calcium 5 assay kit (Molecular Devices, Sunnyvale, CA). For calcium measurements, cells at a density of 125,000 cells/well in 100 µl medium were seeded onto a 96-well clear bottom black cell culture plate that was pre-coated with poly-L-lysine. In the calcium assays the cell density of 125,000 cells/well was consistently maintained to minimize variability between independent experiments. The cells were seeded in induction media to induce MAS expression or in complete media for negative controls. The plate was maintained in a cell culture incubator for 26–28 h. The cells were then serum starved for 2 h by replacing the medium with 100 µl of serum free DMEM. In the case of pre-treatment with pan-inhibitor of G protein signaling, BIM-46187, the cells were initially serum starved for 1 h by replacing the medium with 50 µl of serum free DMEM. After 1 h, 50 µl of BIM-46187 was added to the cells to a final concentration of 25 µM and treated for another 1 h. Following serum starvation, 100 µl of calcium sensitive dye along with 2x (2.5 mM final concentration) probenecid (Life Technologies, Grand Island, NY) was added to the cells. During this step, AR-inverse agonist or BIM-46187 was also added at desired concentrations to the calcium dye preparation in case of experiments where cells were pre-treated with these inhibitors. The cells were maintained for one hour in the cell culture incubator. […] The instrument was programmed in FLEX mode to add ligands (50 µl at 5x concentration) to the cells and to monitor the fluorescence before and after adding the ligands. […]
as §1
(§3) For re-stimulation assays, the data is expressed as the percentage of maximum agonist stimulation to allow for ready comparison between individual experiments. […]

MAS I191A mutant = molecular target: T4, MAS I191A mutant (Homo sapiens, UniProt P04201, I191A); experiment: Calcium assay, I191A MAS mutant stable cell line; assay type: cell-based
T4 construct: expressed in transfected cells
T4 sequence (P04201 1-325 I191A): T1 sequence (P04201 1-325) with I191A
Procedure: as §2, §1, §3

MAS M244A mutant = molecular target: T5, MAS M244A mutant (Homo sapiens, UniProt P04201, M244A); experiment: Calcium assay, M244A MAS mutant stable cell line; assay type: cell-based
T5 construct: expressed in transfected cells
T5 sequence (P04201 1-325 M244A): T1 sequence (P04201 1-325) with M244A
Procedure: as §2, §1, §3

MAS T270A mutant = molecular target: T6, MAS T270A mutant (Homo sapiens, UniProt P04201, T270A); experiment: Calcium assay, T270A MAS mutant stable cell line; assay type: cell-based
T6 construct: expressed in transfected cells
T6 sequence (P04201 1-325 T270A): T1 sequence (P04201 1-325) with T270A
Procedure: as §2, §1, §3

MAS [7] = settings: Mouse MAS, cited from earlier work
MAS [8] = tested on: MAS; parameters: method as in ref [12] (a number printed in a supplementary file, which may have a reference list of its own: not looked up in the article's list); settings: Rat MAS; ref [12]; read-out: EC50 (Calcium assay); cited from earlier work
[9] = molecular target: T7, myc-tagged wild-type human MAS receptor (human) (UniProt P04201)
T7 sequence: T1 sequence (P04201 1-325)

MAS [10] = molecular target: T1, MAS; parameters: method as in ref [10,11] (a number printed in a supplementary file, which may have a reference list of its own: not looked up in the article's list); settings: ref [10,11], read-out: EC50 (Calcium assay); cited from earlier work
[11] = molecular target: T7, myc-tagged wild-type human MAS receptor (human); remark: listed apart in the source
[12] = WT MAS, t1/2 at 1000 µM (1 mM) ligand concentration
[13] = WT MAS, t1/2 at 100 µM ligand concentration

## CCNC(=O)NS(=O)(=O)c1sc(CC(C)C)cc1-c1ccc(Cn2c(-c3ccccc3)nc(OC)c2C=O)cc1 [AVE 0991]
MAS [1]
  Remarks: Ang(1-7)-like effects: Mimics Ang(1-7) effects

## CC[C@H](C)[C@H](NC(=O)[C@H](Cc1ccc(O)cc1)NC(=O)[C@@H](NC(=O)[C@H](CCCNC(=N)N)NC(=O)[C@@H](N)CC(=O)O)C(C)C)C(=O)N[C@@H](Cc1c[nH]cn1)C(=O)N1CCC[C@H]1C(=O)O [Ang(1–7), angiotensin (1–7)]
MAS [2]; WT MAS
  EC50, Calcium assay: cbd
MAS [2]; [12]
  t1/2, Calcium assay: 11.8 ± 0.6 s
MAS [3]
  EC50, IP1 assay: cbd
MAS [4]
  EC50, Luciferase assay: cbd
Untagged WT MAS
  Calcium response: no response
MAS [5]
  Type (Arachidonic acid release assay): Endogenous agonist
MAS [6]
  Effect in aortic rings: Vasodilator effect in aortic rings

## CC[C@H](C)[C@H](NC(=O)[C@H](Cc1ccc(O)cc1)NC(=O)[C@@H](NC(=O)[C@H](CCCNC(=N)N)NC(=O)[C@@H](N)CC(=O)O)C(C)C)C(=O)N[C@@H](Cc1c[nH]cn1)C(=O)N1CCC[C@H]1C(N)=O [Ang(1–7)-amide]
MAS [2]; WT MAS
  EC50, Calcium assay: cbd
MAS [2]; [12]
  t1/2, Calcium assay: 11.4 ± 1.0 s

## CC[C@H](C)[C@H](NC(=O)[C@H](Cc1ccc(O)cc1)NC(=O)[C@@H](N)C(C)C)C(=O)N[C@@H](Cc1c[nH]cn1)C(=O)N1CCC[C@H]1C(=O)N[C@@H](Cc1ccccc1)C(N)=O [AngIV-amide]
MAS [2]; WT MAS
  EC50: 24.4 ± 1.5 µM
MAS [2]; [13]
  t1/2, Calcium assay: 13.7 ± 0.9 s

## N[C@@H](CSSC[C@H](N)C(=O)N1CCn2cc(-c3ccccc3)nc2[C@@H]1CC1CCCCC1)C(=O)N1CCn2cc(-c3ccccc3)nc2[C@@H]1CC1CCCCC1 [BIM-46187]
MAS [2]; 25 µM pre-treatment
  Effect of pre-treatment on AR-agonist calcium signal: complete loss of signal

## CC(C)C[C@H](NC(=O)[C@@H](N)Cc1ccccc1)C(=O)N[C@@H](Cc1ccccc1)C(=O)N[C@@H](CCC(N)=O)C(=O)N1CCC[C@H]1C(=O)N[C@@H](CCC(N)=O)C(=O)N[C@@H](CCCN=C(N)N)C(=O)N[C@@H](Cc1ccccc1)C(N)=O [NPFF, Neuropeptide FF]
MAS [2]; WT MAS
  t1/2 (time taken to reach half of the maximal calcium response), Calcium assay: 8.5 ± 0.3 s
MAS F112A mutant
  t1/2, Calcium assay: 7.7±2.9^#∧ s
MAS I191A mutant
  t1/2, Calcium assay: 9.0 ± 0.4 s
MAS M244A mutant
  t1/2, Calcium assay: cbd
MAS T270A mutant
  t1/2, Calcium assay: 9.3±2.0^#∧ s

## CC[C@H](C)[C@H](NC(=O)[C@H](Cc1ccc(O)cc1)NC(=O)[C@@H](NC(=O)[C@H](CCCN=C(N)N)NC(=O)CNC)C(C)C)C(=O)N[C@@H](Cc1c[nH]cn1)C(=O)N1CCC[C@H]1C(N)=O [[Sar^1]-Ang(1–7)-amide]
MAS [2]; WT MAS
  EC50: 193 ± 59 µM
MAS [2]; [13]
  t1/2, Calcium assay: 18.2 ± 1.2 s

## CC(C)C[C@H](NC(=O)[C@H](N)Cc1ccc(O)cc1)C(=O)N(C)[C@@H](Cc1ccccc1)C(=O)N[C@@H](CCC(N)=O)C(=O)N1CCC[C@H]1C(=O)N[C@@H](CCC(N)=O)C(=O)N[C@@H](CCCN=C(N)N)C(=O)N[C@@H](Cc1ccccc1)C(N)=O [[^DY^1] [^NMeF^3]-NPFF] (HELM PEPTIDE1{[dY].L.[meF].Q.P.Q.R.F.[am]}$$$$V2.0)
MAS [2]; WT MAS
  EC50: 2.4 ± 0.3 µM

## A779: Ang(1–7) analog, sequence DRVYIH^DA (DRVYIH[dA])
MAS [2]; WT MAS
  EC50, Calcium assay: cbd
MAS [2]; [13]
  t1/2, Calcium assay: cbd ^#
MAS [7]; ref [2,5]
  Remarks: effect on Ang(1-7) response: Inhibits Ang(1-7) response

## MBP7: peptide agonist, sequence KAQLRRLS
MAS [8]
  EC50: 36.4 µM

## NPFF-C (peptide)
[9]
  EC50, calcium assay, induced WT MAS stable HEK293 cells: 3 µM

## P33 / CGEN-857: peptide agonist, sequence SMCHRWSRAVLFPAAHRP
MAS [10]
  EC50: 1 µM

## P61 / CGEN-856: peptide agonist, sequence FLGYCIYLNRKRRGDPAFKRRLRD
MAS [10]
  EC50: 0.57 µM

## VYIHP [Ang(3–7)] [listing 1 of 2 here]
MAS [2]; WT MAS
  EC50, Calcium assay: cbd

## VYIHP [Ang(3–7)] [listing 2 of 2 here]
MAS [2]; [12]
  t1/2, Calcium assay: 15.0 ± 0.5 s

## YLFQPQRF-NH2 [[Y^1]-NPFF]
MAS [2]; WT MAS
  EC50: 12.2 ± 2 µM

## [^DPro^7]-Ang(1-7)
MAS [7]; ref [6]
  Remarks: effect on Ang(1-7) response: Inhibits Ang(1-7) response

## YLFQPQRF-NH2 [[Y^1]-NPFF]
[9]
  EC50, calcium assay, induced WT MAS stable HEK293 cells: 12.2 µM

## VYIHPF-NH2 [AngIV-amide]
[11]
  EC50, calcium assay, induced WT MAS stable HEK293 cells (response incompletely inhibited by AR-inverse agonist; non-specific response in un-induced cells at 1 mM): 24.4 µM

B1: [Sar^1]-Ang(1–7)-amide (peptide)
peptide: GRVYIHP
HELM: PEPTIDE1{[Sar].R.V.Y.I.H.P.[am]}$$$$V2.0; N-terminus assumed
SMILES: CC[C@H](C)[C@H](NC(=O)[C@H](Cc1ccc(O)cc1)NC(=O)[C@@H](NC(=O)[C@H](CCCNC(=N)N)NC(=O)CNC)C(C)C)C(=O)N[C@@H](Cc1c[nH]cn1)C(=O)N1CCC[C@H]1C(N)=O
[11]
  EC50, calcium assay, induced WT MAS stable HEK293 cells: 193 µM

## RVYIHPF [AngIII]
[11]
  EC50, calcium assay, induced WT MAS stable HEK293 cells (response incompletely inhibited by AR-inverse agonist; non-specific response in un-induced cells at 1 mM): 30.7 µM

B2: [^DY^1] [^NMeF^3]-NPFF (peptide)
peptide: YLFQPQRF
HELM: PEPTIDE1{[dY].L.[meF].Q.P.Q.R.F.[am]}$$$$V2.0; N-terminus assumed
SMILES: CC(C)C[C@H](NC(=O)[C@H](N)Cc1ccc(O)cc1)C(=O)N(C)[C@@H](Cc1ccccc1)C(=O)N[C@@H](CCC(N)=O)C(=O)N1CCC[C@H]1C(=O)N[C@@H](CCC(N)=O)C(=O)N[C@@H](CCCNC(=N)N)C(=O)N[C@@H](Cc1ccccc1)C(N)=O
[9]
  EC50, calcium assay, induced WT MAS stable HEK293 cells: 2.4 µM
